# Measured values: patent publication US8377470B2, “Non-gelatin soft capsule system” (R.P. Scherer Technologies, LLC, priority 2004, dated 2013)
# How the values were obtained:
# [1] = Film stability with concentrated salt formulations, starch/gelling carrageenan film; type: physicochemical; conditions: concentrated suspension/solution in film depression, open exposure
# Experimental: (§1) The films were formed and spread over a holding device such that small depressions could be formed in the surface of the film. A depression was formed and subsequently filled with the concentrated suspension of the salt formulation. Simultaneously, two acidic solutions were tested by the same protocol. […] This is well-known in the art to be an extremely aggressive mode of stability testing, resulting in acceleration in the interaction between shell and fill of over 260 times normal rates.
# [2] = Film stability with concentrated salt formulations, gelatin film; type: physicochemical; conditions: concentrated suspension/solution in film depression, open exposure
# Experimental: as §1
# [3] = sodium or potassium hydroxide required to solubilize acetaminophen at greater than about 27% by weight; cited from earlier work
Structure (SMILES),"Test Result After 24 Hours at 40° C.-75% RH, Starch/Gelling Carrageenan film [1]","Test Result After 24 Hours at 40° C.-75% RH, Gelatin film [2]",pH of the PEG solution [3]
CC(=O)O.N [Ammonium acetate],Pass,Fail,
O=C(O)CC(O)(CC(=O)O)C(=O)O [Citric acid],Fail,Fail,
O=C([O-])c1ccccc1C(=O)O.[K+] [Potassium Hydrogen Phthalate],Pass,Fail,
O=P([O-])([O-])O.[K+].[K+] [Potassium PO4-(dibasic)],Pass,Fail,
CC(=O)[O-].[K+] [Potassium acetate],Pass,Fail,
O=C([O-])CC(O)(CC(=O)[O-])C(=O)[O-].[K+].[K+].[K+] [Potassium citrate],Pass,Fail,
O=P([O-])([O-])[O-].[Na+].[Na+].[Na+] [Sodium PO4-(tribasic)],Pass,Fail,
O=C(O)C(O)C(O)C(=O)O (centres unmarked) [Tartaric acid],Fail,Fail,
"CC(=O)Nc1ccc(O)cc1 [acetaminophen, N-acetyl-p-aminophenol]",,,greater than 12
